Experimental data: patent US20200017495A1, “NOVEL HETEROCYCLIC COMPOUNDS AND THEIR USE IN PREVENTING OR TREATING BACTERIAL INFECTIONS” (priority 2017, published 2020)

Experiments:
Test in all cases: MIC of compounds alone and combined with antibacterials, broth microdilution (CLSI)
Assay type in all cases: cell-based
[1] = system: Enterobacter cloacae (ECL) isolates
Outline: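 Broth microdilution in cation-adjusted Mueller-Hinton broth, inoculum 5.10^5 CFU/mL, 16-20 h at 35° C in ambient air, on genotyped isolates. Compound MIC, alone or with an antibacterial, taken visually as lowest concentration preventing growth; antibacterial MIC determined at each compound concentration.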

[2] = system: Citrobacter murliniae (CMU) isolates; conditions: for MIC ATB in combination: CMU 210102
Outline: (§1)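 CLSI broth microdilution: log-phase isolates at 5.10^5 CFU/mL in cation-adjusted Mueller-Hinton broth were exposed to compound alone or in combination with an antibacterial, 16-20 h at 35° C in ambient air. MIC is the lowest concentration preventing visible growth, including the antibacterial MIC at each compound concentration.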

[3] = system: Salmonella typhimurium (STY) isolates; conditions: for MIC ATB in combination: STY S3371
Outline: as §1

[4] = system: Providencia stuartii (PST) isolates
Outline: as §1

C=CC1=C(C(=O)O)N2C(=O)[C@@H](NC(=O)/C(=N\OCC(=O)O)c3csc(N)n3)[C@H]2SC1 [FIX, Cefixime]
MIC ([1]; strain ECL UFR197, genotype TEM-1, CTX-M-15, OXA-1, OXA-48): >128 µg/mL | MIC ATB in combination ([1]; strain ECL UFR197, with AF2 @ 8 μg/mL): 32 µg/mL | MIC ATB in combination ([1]; strain ECL UFR197, with AF3 @ 8 μg/mL): 4 µg/mL | MIC ATB in combination ([1]; strain ECL UFR197, with CLA @ 4 μg/mL): 128 µg/mL | MIC ([1]; strain ECL UFR198, genotype TEM-1, SHV-12, CTX-M-15, DHA-1, OXA-1, OXA-48): >128 µg/mL | MIC ATB in combination ([1]; strain ECL UFR198, with AF2 @ 8 μg/mL): 128 µg/mL | MIC ATB in combination ([1]; strain ECL UFR198, with AF3 @ 8 μg/mL): 32 µg/mL | MIC ATB in combination ([1]; strain ECL UFR198, with CLA @ 4 μg/mL): >128 µg/mL | MIC ([1]; strain ECL UFR200, genotype TEM-1, SHV-12, KPC-2): >128 µg/mL | MIC ([1]; strain ECL UFR203, genotype TEM-1, SHV-12, VIM-1, antibiotic alone): >128 µg/mL | MIC ATB in combination ([1]; strain ECL UFR203, with AF2 @ 8 μg/mL): >128 µg/mL | MIC ATB in combination ([1]; strain ECL UFR203, with AF3 @ 8 μg/mL): >128 µg/mL | MIC ATB in combination ([1]; strain ECL UFR203, with CLA @ 4 μg/mL): >128 µg/mL | MIC ([1]; strain ECL UFR214, genotype TEM-1, SHV-31, CTX-M-15, VIM-4, antibiotic alone): >128 µg/mL | MIC ATB in combination ([1]; strain ECL UFR214, with AF2 @ 8 μg/mL): >128 µg/mL | MIC ATB in combination ([1]; strain ECL UFR214, with AF3 @ 8 μg/mL): >128 µg/mL | MIC ATB in combination ([1]; strain ECL UFR214, with CLA @ 4 μg/mL): >128 µg/mL | MIC ([1]; strain ECL UFR252PT, genotype VIM-2, antibiotic alone): >128 µg/mL | MIC ATB in combination ([1]; strain ECL UFR252PT, with AF2 @ 8 μg/mL): >128 µg/mL | MIC ATB in combination ([1]; strain ECL UFR252PT, with AF3 @ 8 μg/mL): >128 µg/mL | MIC ATB in combination ([1]; strain ECL UFR252PT, with CLA @ 4 μg/mL): >128 µg/mL | MIC ATB in combination ([2]; AF2 @ 8 μg/mL): >128 µg/mL | MIC ATB in combination ([2]; AF3 @ 8 μg/mL): >128 µg/mL | MIC ATB in combination ([2]; CLA @ 4 μg/mL): >128 µg/mL | MIC ([2]; strain CMU 210102, genotype VIM-4): >128 µg/mL | MIC ATB in combination ([3]; AF2 @ 8 μg/mL): <0.25 µg/mL | MIC ATB in combination ([3]; AF3 @ 8 μg/mL): <0.25 µg/mL | MIC ATB in combination ([3]; CLA @ 4 μg/mL): <=0.25 μg/mL | MIC ([3]; strain STY S3371, genotype OXA-1): <=0.25 μg/mL | MIC ATB in combination ([4]; PST UFR94, AF2 @ 8 μg/mL): <=0.25 μg/mL | MIC ATB in combination ([4]; PST UFR94, AF3 @ 8 μg/mL): <=0.25 μg/mL | MIC ATB in combination ([4]; PST UFR94, CLA @ 4 μg/mL): 2 µg/mL | MIC ATB in combination ([4]; PST UFR95, AF2 @ 8 μg/mL): <=0.25 μg/mL | MIC ATB in combination ([4]; PST UFR95, AF3 @ 8 μg/mL): <=0.25 μg/mL | MIC ATB in combination ([4]; PST UFR95, CLA @ 4 μg/mL): 8 µg/mL | MIC ATB in combination ([4]; PST UFR120, AF2 @ 8 μg/mL): <0.25 µg/mL | MIC ATB in combination ([4]; PST UFR120, AF3 @ 8 μg/mL): <0.25 µg/mL | MIC ATB in combination ([4]; PST UFR120, CLA @ 4 μg/mL): <=0.25 μg/mL | MIC ATB in combination ([4]; PST UFR121, AF2 @ 8 μg/mL): <0.25 µg/mL | MIC ATB in combination ([4]; PST UFR121, AF3 @ 8 μg/mL): <0.25 µg/mL | MIC ATB in combination ([4]; PST UFR121, CLA @ 4 μg/mL): <=0.25 μg/mL | MIC ATB in combination ([4]; PST UFR122, AF2 @ 8 μg/mL): <0.25 µg/mL | MIC ATB in combination ([4]; PST UFR122, AF3 @ 8 μg/mL): <0.25 µg/mL | MIC ATB in combination ([4]; PST UFR122, CLA @ 4 μg/mL): <=0.25 μg/mL | MIC ATB in combination ([4]; PST UFR123, AF2 @ 8 μg/mL): <0.25 µg/mL | MIC ATB in combination ([4]; PST UFR123, AF3 @ 8 μg/mL): <0.25 µg/mL | MIC ATB in combination ([4]; PST UFR123, CLA @ 4 μg/mL): <=0.25 μg/mL | MIC ATB in combination ([4]; PST UFR124, AF2 @ 8 μg/mL): <0.25 µg/mL | MIC ATB in combination ([4]; PST UFR124, AF3 @ 8 μg/mL): <0.25 µg/mL | MIC ATB in combination ([4]; PST UFR124, CLA @ 4 μg/mL): <=0.25 μg/mL | MIC ATB in combination ([4]; PST UFR125, AF2 @ 8 μg/mL): <0.25 µg/mL | MIC ATB in combination ([4]; PST UFR125, AF3 @ 8 μg/mL): <0.25 µg/mL | MIC ATB in combination ([4]; PST UFR125, CLA @ 4 μg/mL): <=0.25 μg/mL | MIC ATB in combination ([4]; PST UFR235, AF2 @ 8 μg/mL): <=0.25 μg/mL | MIC ATB in combination ([4]; PST UFR235, AF3 @ 8 μg/mL): <=0.25 μg/mL | MIC ATB in combination ([4]; PST UFR235, CLA @ 4 μg/mL): 8 µg/mL | MIC ([4]; strain PST UFR94, genotype CTX-M-14): 0.5 µg/mL | MIC ([4]; strain PST UFR95, genotype TEM-24): 4 µg/mL | MIC ([4]; strain PST UFR98, genotype TEM-1, CMY-6, OXA-1, NDM-1, RmtC): >128 µg/mL | MIC ATB in combination ([4]; strain PST UFR98, with AF2 @ 8 μg/mL): 64 µg/mL | MIC ATB in combination ([4]; strain PST UFR98, with AF3 @ 8 μg/mL): 32 µg/mL | MIC ATB in combination ([4]; strain PST UFR98, with CLA @ 4 μg/mL): >128 µg/mL | MIC ([4]; strain PST UFR235, compound alone): 512 µg/mL | MIC ([4]; strain PST UFR235, genotype VEB-1): 512 µg/mL
